Reference: patent US8338598B2, “Herbicidal pyrido[2,3-B]pyrazines and their use as herbicides” (Syngenta Limited, priority 2008, dated 2012)

Key:
Type in all cases: in vivo
test plants = assay: Example B1 herbicidal action, post-emergence, overall statement on the test plants; settings: Example B1 protocol, 1000 g/ha, result in words
Description: Seeds of a variety of test species were sown in sterilised standard soil in seed trays each having 96 cells. After cultivation for 8 to 9 days cultivation (post-emergence) under controlled conditions in a climatic chamber (cultivation at 23/17° C., day/night; 13 hours light; 50-60% humidity), the plants were treated with an aqueous spray solution of 1000 mg/l of the active ingredient dissolved in 10% DMSO (dimethyl sulfoxide, CAS RN 67-68-5) as a solvent, equivalent to 1000 g/ha. The plants were grown in the climatic chamber after application at (24/19° C., day/night; 13 hours light; 50-60% humidity) and watered twice daily. After 9 days until the test was evaluated (10=total damage to plant, 0=no damage to plant)

Amaranthus retroflexus [1] = assay: Example B2 herbicidal action, pre-emergence, pots in glasshouse; settings: 1000 g/ha, evaluated after 13 days, 10=total damage to plant, 0=no damage to plant
Description: (§1) Seeds of a variety of test species were sown in standard soil in pots. After cultivation for one day (pre-emergence) or after 8 days cultivation (post-emergence) under controlled conditions in a glasshouse (at 24/16° C., day/night; 14 hours light; 65% humidity), the plants were sprayed with an aqueous spray solution derived from the formulation of the technical active ingredient in acetone/water (50:50) solution containing 0.5% Tween 20 (polyoxyethelyene sorbitan monolaurate, CAS RN 9005-64-5). The test plants were then grown in a glasshouse under controlled conditions in a glasshouse (at 24/16° C., day/night; 14 hours light; 65% humidity) and watered twice daily. After 13 days, the test was evaluated (10=total damage to plant; 0=no damage to plant).

Echinochloa crus-galli [2] = assay: as above; settings: 1000 g/ha, evaluated after 13 days, 10=total damage to plant, 0=no damage to plant
Description: as §1

Ipomea hederaceae [3] = assay: as above; settings: 1000 g/ha, evaluated after 13 days, 10=total damage to plant, 0=no damage to plant
Description: as §1

Solanum nigrum [4] = assay: as above; settings: 1000 g/ha, evaluated after 13 days, 10=total damage to plant, 0=no damage to plant
Description: as §1

Setaria faberi [5] = assay: as above; settings: 1000 g/ha, evaluated after 13 days, 10=total damage to plant, 0=no damage to plant
Description: as §1

Amaranthus retroflexus [6] = assay: Example B2 herbicidal action, post-emergence, pots in glasshouse; settings: 1000 g/ha, evaluated after 13 days, 10=total damage to plant, 0=no damage to plant
Description: as §1

Echinochloa crus-galli [7] = assay: as above; settings: 1000 g/ha, evaluated after 13 days, 10=total damage to plant, 0=no damage to plant
Description: as §1

Ipomea hederaceae [8] = assay: as above; settings: 1000 g/ha, evaluated after 13 days, 10=total damage to plant, 0=no damage to plant
Description: as §1

Solanum nigrum [9] = assay: as above; settings: 1000 g/ha, evaluated after 13 days, 10=total damage to plant, 0=no damage to plant
Description: as §1

Setaria faberi [10] = assay: as above; settings: 1000 g/ha, evaluated after 13 days, 10=total damage to plant, 0=no damage to plant
Description: as §1

With Cc1cc(-c2c(O)c3nccnc3[nH]c2=O)n2nc(C)cc2n1 [Compound C1] the “damage to the test plants” value (test plants) was “little or no damage”.
With O=c1[nH]c2nccnc2c(O)c1-c1ncc(C(F)(F)F)cc1Cl [Compound A29] the “damage to the test plants” value (test plants) was “little or no damage”.
O=c1[nH]c2nccnc2c(O)c1-c1ncc(Cl)cc1F [Compound A28] was tested, and the “damage to the test plants” value (test plants) was “little or no damage”.
CC(C)C(=O)Oc1c(-c2nn(C)nc2C(F)(F)F)c(=O)[nH]c2nccnc12 [Compound B28] was tested, and the “AMARE, damage to plant” value (Amaranthus retroflexus [1]) was 7, the “ECHCG, damage to plant” value (Echinochloa crus-galli [2]) was 0 and the “IPOHE, damage to plant” value (Ipomea hederaceae [3]) was 0. For the same molecule, the “SOLNI, damage to plant” value (Solanum nigrum [4]) was 0, the “SETFA, damage to plant” value (Setaria faberi [5]) was 0 and the “AMARE, damage to plant” value (Amaranthus retroflexus [6]) was 0. The “ECHCG, damage to plant” value (Echinochloa crus-galli [7]) was 0, the “IPOHE, damage to plant” value (Ipomea hederaceae [8]) was 0 and the “SOLNI, damage to plant” value (Solanum nigrum [9]) was 1. The “SETFA, damage to plant” value (Setaria faberi [10]) was 1.
With Cn1nc(-c2c(O)c3nccnc3n(CC(F)F)c2=O)c(C(F)(F)F)n1 [Compound B30] the “AMARE, damage to plant” value (Amaranthus retroflexus [1]) was 7, the “ECHCG, damage to plant” value (Echinochloa crus-galli [2]) was 1 and the “IPOHE, damage to plant” value (Ipomea hederaceae [3]) was 3. For the same molecule, the “SOLNI, damage to plant” value (Solanum nigrum [4]) was 2, the “SETFA, damage to plant” value (Setaria faberi [5]) was 2 and the “AMARE, damage to plant” value (Amaranthus retroflexus [6]) was 9. For the same molecule, the “ECHCG, damage to plant” value (Echinochloa crus-galli [7]) was 6, the “IPOHE, damage to plant” value (Ipomea hederaceae [8]) was 8 and the “SOLNI, damage to plant” value (Solanum nigrum [9]) was 9. For the same molecule, the “SETFA, damage to plant” value (Setaria faberi [10]) was 7.
In the case of Cn1c(=O)c(-c2c(Cl)cncc2Cl)c(OC(=O)C(C)(C)C)c2nccnc21 [Compound A9, 2,2-Dimethyl-propionic acid 7-(3,5-dichloro-pyrid-4-yl)-5-methyl-6-oxo-5,6-dihydro-pyrido[2,3-b]pyrazin-8-yl ester], the “AMARE, damage to plant” value (Amaranthus retroflexus [1]) is reported as 0, the “ECHCG, damage to plant” value (Echinochloa crus-galli [2]) is reported as 5 and the “IPOHE, damage to plant” value (Ipomea hederaceae [3]) is reported as 5. For the same molecule, the “SOLNI, damage to plant” value (Solanum nigrum [4]) was 1, the “SETFA, damage to plant” value (Setaria faberi [5]) was 0 and the “AMARE, damage to plant” value (Amaranthus retroflexus [6]) was 8. For the same molecule, the “ECHCG, damage to plant” value (Echinochloa crus-galli [7]) was 7, the “IPOHE, damage to plant” value (Ipomea hederaceae [8]) was 8 and the “SOLNI, damage to plant” value (Solanum nigrum [9]) was 8. The “SETFA, damage to plant” value (Setaria faberi [10]) was 4.
In the case of CCn1c(=O)c(-c2c(Cl)cncc2Cl)c(OC(=O)C(C)(C)C)c2nccnc21 [Compound A10, 2,2-Dimethyl-propionic acid 7-(3,5-dichloro-pyrid-4-yl)-5-ethyl-6-oxo-5,6-dihydro-pyrido[2,3-b]pyrazin-8-yl ester], the “AMARE, damage to plant” value (Amaranthus retroflexus [1]) is reported as 0, the “ECHCG, damage to plant” value (Echinochloa crus-galli [2]) is reported as 5 and the “IPOHE, damage to plant” value (Ipomea hederaceae [3]) is reported as 2. The “SOLNI, damage to plant” value (Solanum nigrum [4]) was 2, the “SETFA, damage to plant” value (Setaria faberi [5]) was 1 and the “AMARE, damage to plant” value (Amaranthus retroflexus [6]) was 9. For the same molecule, the “ECHCG, damage to plant” value (Echinochloa crus-galli [7]) was 7, the “IPOHE, damage to plant” value (Ipomea hederaceae [8]) was 8 and the “SOLNI, damage to plant” value (Solanum nigrum [9]) was 9. For the same molecule, the “SETFA, damage to plant” value (Setaria faberi [10]) was 6.
With Cc1cc(-c2c(O)c3nccnc3[nH]c2=O)[nH]n1 [Compound B14] the “damage to the test plants” value (test plants) was “little or no damage”.
With CCOC(=O)Oc1c(-c2ncc(Cl)cc2Cl)c(=O)[nH]c2nccnc12 [Compound A3, Carbonic acid 7-(3,5-dichloro-pyrid-2-yl)-6-oxo-5,6-dihydro-pyrido[2,3-b]pyrazin-8-yl ester ethyl ester] the “damage to the test plants” value (test plants) was “little or no damage”.
In the case of CC(C)(C)C(=O)Oc1c(-c2c(Cl)ccnc2Cl)c(=O)n(CC(F)F)c2nccnc12 [Compound A18, 2,2-Dimethyl-propionic acid 7-(2,4-dichloro-pyrid-3-yl)-5-(2,2-difluoro-ethyl)-6-oxo-5,6-dihydro-pyrido[2,3-b]pyrazin-8-yl ester], the “AMARE, damage to plant” value (Amaranthus retroflexus [1]) is reported as 6, the “ECHCG, damage to plant” value (Echinochloa crus-galli [2]) is reported as 7 and the “IPOHE, damage to plant” value (Ipomea hederaceae [3]) is reported as 6. For the same molecule, the “SOLNI, damage to plant” value (Solanum nigrum [4]) was 9, the “SETFA, damage to plant” value (Setaria faberi [5]) was 5 and the “AMARE, damage to plant” value (Amaranthus retroflexus [6]) was 10. For the same molecule, the “ECHCG, damage to plant” value (Echinochloa crus-galli [7]) was 7, the “IPOHE, damage to plant” value (Ipomea hederaceae [8]) was 9 and the “SOLNI, damage to plant” value (Solanum nigrum [9]) was 9. For the same molecule, the “SETFA, damage to plant” value (Setaria faberi [10]) was 7.
Cc1cc(-c2c(OC(=O)C(C)(C)C)c3nccnc3[nH]c2=O)on1 [Compound B17] was tested, and the “damage to the test plants” value (test plants) was “little or no damage”.
For Cn1nc(C(F)(F)F)c(-c2c(O)c3nccnc3[nH]c2=O)c1OC(F)F [Compound B26, 7-(5-difluoromethoxy-1-methyl-3-trifluoromethyl-1H-pyrazol-4-yl)-8-hydroxy-5H-pyrido[2,3-b]pyrazin-6-one], the “AMARE, damage to plant” value (Amaranthus retroflexus [1]) was 1, the “ECHCG, damage to plant” value (Echinochloa crus-galli [2]) was 1 and the “IPOHE, damage to plant” value (Ipomea hederaceae [3]) was 0. The “SOLNI, damage to plant” value (Solanum nigrum [4]) was 0, the “SETFA, damage to plant” value (Setaria faberi [5]) was 0 and the “AMARE, damage to plant” value (Amaranthus retroflexus [6]) was 5. The “ECHCG, damage to plant” value (Echinochloa crus-galli [7]) was 6, the “IPOHE, damage to plant” value (Ipomea hederaceae [8]) was 3 and the “SOLNI, damage to plant” value (Solanum nigrum [9]) was 3. The “SETFA, damage to plant” value (Setaria faberi [10]) was 8.
With Cc1cc(-c2c(O)c3nccnc3[nH]c2=O)on1 [Compound B13] the “damage to the test plants” value (test plants) was “little or no damage”.
With CS(=O)(=O)Oc1c(-c2ncc(Cl)cc2Cl)c(=O)[nH]c2nccnc12 [Compound A4, methanesulfonic acid 7-(3,5-dichloro-pyrid-2-yl)-6-oxo-5,6-dihydro-pyrido[2,3-b]pyrazin-8-yl ester] the “damage to the test plants” value (test plants) was “little or no damage”.
CCn1c(=O)c(-c2cc(C)no2)c(OC(=O)C(C)C)c2nccnc21 [Compound B21] was tested, and the “damage to the test plants” value (test plants) was “little or no damage”.
CC(C)C(=O)Oc1c(-c2nn(C)nc2C(F)(F)F)c(=O)n(CC(F)F)c2nccnc12 [Compound B29] was tested, and the “AMARE, damage to plant” value (Amaranthus retroflexus [1]) was 4, the “ECHCG, damage to plant” value (Echinochloa crus-galli [2]) was 1 and the “IPOHE, damage to plant” value (Ipomea hederaceae [3]) was 1. For the same molecule, the “SOLNI, damage to plant” value (Solanum nigrum [4]) was 2, the “SETFA, damage to plant” value (Setaria faberi [5]) was 3 and the “AMARE, damage to plant” value (Amaranthus retroflexus [6]) was 8. For the same molecule, the “ECHCG, damage to plant” value (Echinochloa crus-galli [7]) was 3, the “IPOHE, damage to plant” value (Ipomea hederaceae [8]) was 7 and the “SOLNI, damage to plant” value (Solanum nigrum [9]) was 7. The “SETFA, damage to plant” value (Setaria faberi [10]) was 7.
In the case of CC(C)(C)C(=O)Oc1c(-c2c(Cl)ccnc2Cl)c(=O)[nH]c2nccnc12 [Compound A17, 2,2-Dimethyl-propionic acid 7-(2,4-dichloro-pyrid-3-yl)-6-oxo-5,6-dihydro-pyrido[2,3-b]pyrazin-8-yl ester], the “damage to the test plants” value (test plants) is reported as “little or no damage”.
Cc1cc(-c2c(OC(=O)C(C)(C)C)c3nccnc3n(C)c2=O)n2nc(C)cc2n1 [Compound C3] was tested, and the “damage to the test plants” value (test plants) was “little or no damage”.
For Cc1noc(-c2c(OC(=O)C(C)C)c3nccnc3n(C)c2=O)n1 [Compound B6, isobutyric acid 5-methyl-7-(3-methyl-1,2,4-oxadiazol-5-yl)-6-oxo-5,6-dihydro-pyrido[2,3-b]pyrazin-8-yl ester], the “damage to the test plants” value (test plants) was “little or no damage”.
Cc1cc(-c2c(OC(=O)C(C)(C)C)c3nccnc3[nH]c2=O)n2nc(C)cc2n1 [Compound C2] was tested, and the “damage to the test plants” value (test plants) was “little or no damage”.
With CC(C)C(=O)Oc1c(-c2ncc(Cl)cc2Cl)c(O)nc2nccnc12 [Compound A5, isobutyric acid 7-(3,5-dichloro-pyrid-2-yl)-6-oxo-5,6-dihydro-pyrido[2,3-b]pyrazin-8-yl ester] the “damage to the test plants” value (test plants) was “little or no damage”.
In the case of Cc1cc(-c2c(OC(=O)C(C)C)c3nccnc3[nH]c2=O)[nH]n1 [Compound B18], the “damage to the test plants” value (test plants) is reported as “little or no damage”.
With CCn1c(=O)c(-c2cc(C)no2)c(OC(=O)C(C)(C)C)c2nccnc21 [Compound B20] the “damage to the test plants” value (test plants) was “little or no damage”.
CCOc1c(-c2cc(C)n(CC)n2)c(=O)n(CC)c2nccnc12 [Compound B22] was tested, and the “damage to the test plants” value (test plants) was “little or no damage”.
In the case of Cc1cc(-c2c(OC(=O)C(C)(C)C)c3nccnc3[nH]c2=O)[nH]n1 [Compound B19], the “damage to the test plants” value (test plants) is reported as “little or no damage”.
CC(C)C(=O)Oc1c(-c2cc(C(F)(F)F)no2)c(=O)[nH]c2nccnc12 [Compound B7, isobutyric acid 6-hydroxy-7-(3-trifluoromethyl-isoxazol-5-yl)-pyrido[2,3-b]pyrazin-8-yl ester] was tested, and the “damage to the test plants” value (test plants) was “little or no damage”.
In the case of Cc1cc(-c2c(OC(=O)C(C)C)c3nccnc3[nH]c2=O)on1 [Compound B16], the “damage to the test plants” value (test plants) is reported as “little or no damage”.
With O=c1[nH]c2nccnc2c(O)c1-c1ccno1 [Compound B15] the “damage to the test plants” value (test plants) was “little or no damage”.
With Cc1nc(Cl)sc1-c1c(O)c2nccnc2[nH]c1=O [Compound B1, 7-(2-chloro-4-methyl-thiazol-5-yl)-8-hydroxy-5H-pyrido[2,3-b]pyrazin-6-one] the “damage to the test plants” value (test plants) was “little or no damage”.
Oc1nc2nccnc2c(O)c1-c1ncc(Cl)cc1Cl [Compound A1, 7-(3,5-dichloro-pyrid-2-yl)-pyrido[2,3-b]pyrazine-6,8-diol] was tested, and the “damage to the test plants” value (test plants) was “little or no damage”.
